We go through six compounds from patent US9277761B2, “Nutrition trace element composition” (priority 2003, dated 2016).

Where two headings read alike, the source gives them in different places.

Series [1] concerns humans. Particulars: cited from earlier work; for Outcome of inadvertent intravenous infusion: person.
For series [2] the following is noted: cited from earlier work.
The nature of series [3]: Study of 52 patients receiving parenteral nutrition: zinc level in serum and whole blood. It is filed as in vivo, humans.
Description: In a study of 52 patients receiving parenteral nutrition, whereby the patients had haemorrhages, polytrauma/trauma and tumours, in the Vogtland-Klinikum Plauen GmbH, the trace element status of the patients was determined throughout the course of the therapy on the basis of routine medication and routine supplementation.
The goal was to establish whether the routinely administered trace element substitution led to a satisfactory supply of trace elements. For this purpose, the serum and whole blood levels of the trace elements chromium, iron, fluorine, iodine, copper, manganese, molybdenum, selenium and zinc were determined daily, for a minimum of 3 and a maximum of 18 days.
Throughout the above-mentioned observation period, the patients received the normal routine supplementation with the preparations Inzolen HK, Inzolen® sine NaCL, Selenase® and Unizink®, at various times and in various dosages. The trace elements cobalt, copper, manganese, selenium and zinc were administered by means of these preparations, in addition to the macro elements chloride, magnesium, potassium and sodium.
Corresponding to the previous routine, the Inzolen® administrations were made dependent on the daily determined serum potassium level, with the normal range being targeted. Zinc and selenium administration took place on the basis of experience in certain illness situations. The above-mentioned determination of the further macro element and trace element levels was only intended for retrospective observation of the trace element status, and was not included in the daily decision process for any supplementation.
The following reference ranges were the basis for the evaluation:
The second step was to establish what percent of the patients' trace element levels were below, within and above the reference range throughout the entire observation period (3-18 days).
Moreover, the behaviour curves of the trace element levels in the serum and whole blood of each patient were evaluated, whereby performance of further treatments/therapies (Op, CT, accompanying medication, etc.) was taken into consideration.
For series [4] the following is noted: cited from earlier work. This is another data set of the same source.
In series [5] the test system is humans. The note with it: two children, 10-15 ml weapon-cleaning agent with approx. 1.8% selenous acid, roughly 110 mg selenium; cited from earlier work.
The mark [6] stands for this setting: 20 healthy young men, 160 mg zinc/d for 5 weeks.
Where [7] appears, read: Ø, entire observation period (3-18 days).

For `[Zn]` [Zinc], the “Effect of repeated administration” value in the series with humans [1] (150 mg of zinc a day over 2 years) is “copper deficiency”. Moreover, the “Outcome of inadvertent intravenous infusion” value in the series with humans [1] (1.5 g zinc over 60 hours) is “ended fatally”. Moreover, the HDL cholesterol level entry with humans [1] (setting [6]) is “significantly reduced”. In addition, the “Total cholesterol, triglycerides and LDL cholesterol” value in the series on humans [1] (setting [6]) is listed as “normal levels”. Also, the “Effect on the blood lipid levels” value in the series on humans [1] (healthy young women, 100 mg daily for 8 weeks) was “no effect”. Besides, in the series with humans [1] (toxic range not starting until quantities in the grams), the Toxicity entry is given as “low toxicity”. In addition, in series [2] (humans), the “Concentration in the cerebral spinal fluid relative to plasma concentration” value is given as “a tenth”. For the same compound, the “Portion excreted through the faeces” value in series [2] (in vivo) was 90%. Moreover, the “Portion resorbed from the nourishment” value in series [2] (physiological conditions, roughly) is recorded as 20-30%. For the same compound, the “Zinc in serum, patients Above reference range” value in series [3] (Day 1) is on record as 4%; in series [3] (Day 2), 2%; in series [3] (Day 3), 0%; in series [3] (Day 4), 0%; in series [3] (Day 5), 3%; in series [3] (Day 6) it was 4%. The “Zinc in serum, patients Above reference range” value in series [3] (Day 7) was found to be 0%; in series [3] (Day 8), 0%; in series [3] (Day 9), 4%; in series [3] (Day 10) it was 5%; in series [3] (Day 11), 16%; in series [3] (Day 12) it was 7%. Further, the “Zinc in serum, patients Above reference range” value in series [3] (Day 13) is listed as 14%; in series [3] (Day 14), 0%; in series [3] (Day 15), 0%; in series [3] (Day 16), 0%; in series [3] (Day 17), 10%; in series [3] (Day 18), 10%. Besides, the “Zinc in serum, patients Above reference range” value in series [3] (setting [7]) was found to be 14%. The “Zinc in serum, patients Below reference range” value was 76% in series [3] (Day 1); 85% in series [3] (Day 2); 78% in series [3] (Day 3); 86% in series [3] (Day 4); 80% in series [3] (Day 5); 68% in series [3] (Day 6). Besides, the “Zinc in serum, patients Below reference range” value in series [3] (Day 7) stood at 63%; in series [3] (Day 8), 50%; in series [3] (Day 9), 43%; in series [3] (Day 10) it was 33%; in series [3] (Day 11), 16%; in series [3] (Day 12), 20%. For the same compound, the “Zinc in serum, patients Below reference range” value is 7% in series [3] (Day 13); 8% in series [3] (Day 14); 8% in series [3] (Day 15); 9% in series [3] (Day 16); 10% in series [3] (Day 17); 10% in series [3] (Day 18). Also, the “Zinc in serum, patients Below reference range” value in series [3] (setting [7]) came to 38%. For the same compound, the “Zinc in serum, patients Within reference range” value in series [3] (Day 1) was determined as 20%; in series [3] (Day 2), 13%; in series [3] (Day 3), 22%; in series [3] (Day 4), 14%; in series [3] (Day 5), 17%; in series [3] (Day 6), 29%. Moreover, the “Zinc in serum, patients Within reference range” value in series [3] (Day 7) came to 38%; in series [3] (Day 8), 50%; in series [3] (Day 9) it was 52%; in series [3] (Day 10) it was 62%; in series [3] (Day 11), 68%; in series [3] (Day 12) it was 73%. The “Zinc in serum, patients Within reference range” value stood at 79% in series [3] (Day 13); 92% in series [3] (Day 14); 92% in series [3] (Day 15); 91% in series [3] (Day 16); 80% in series [3] (Day 17); 80% in series [3] (Day 18). In series [3] (setting [7]), the “Zinc in serum, patients Within reference range” value stood at 49%. Further, the “Zinc in whole blood, patients Above reference range” value was 10% in series [3] (Day 1); 8% in series [3] (Day 2); 8% in series [3] (Day 3); 5% in series [3] (Day 4); 6% in series [3] (Day 5); 4% in series [3] (Day 6). The “Zinc in whole blood, patients Above reference range” value in series [3] (Day 7) was 8%; in series [3] (Day 8) it was 8%; in series [3] (Day 9), 9%; in series [3] (Day 10), 5%; in series [3] (Day 11) it was 11%; in series [3] (Day 12), 7%. The “Zinc in whole blood, patients Above reference range” value in series [3] (Day 13) is reported as 7%; in series [3] (Day 14), 0%; in series [3] (Day 15), 8%; in series [3] (Day 16) it was 9%; in series [3] (Day 17) it was 10%; in series [3] (Day 18), 20%. Besides, the “Zinc in whole blood, patients Above reference range” value in series [3] (setting [7]) is 7%. Moreover, the “Zinc in whole blood, patients Below reference range” value in series [3] (Day 1) is on record as 6%; in series [3] (Day 2) it was 18%; in series [3] (Day 3) it was 12%; in series [3] (Day 4) it was 14%; in series [3] (Day 5), 17%; in series [3] (Day 6) it was 7%. The “Zinc in whole blood, patients Below reference range” value in series [3] (Day 7) was determined as 8%; in series [3] (Day 8), 4%; in series [3] (Day 9) it was 0%; in series [3] (Day 10), 0%; in series [3] (Day 11) it was 0%; in series [3] (Day 12), 7%. Also, the “Zinc in whole blood, patients Below reference range” value in series [3] (Day 13) is listed as 7%; in series [3] (Day 14), 0%; in series [3] (Day 15), 0%; in series [3] (Day 16), 0%; in series [3] (Day 17), 0%; in series [3] (Day 18) it was 0%. Besides, the “Zinc in whole blood, patients Below reference range” value in series [3] (setting [7]) amounted to 5%. The “Zinc in whole blood, patients Within reference range” value in series [3] (Day 1) came out at 84%; in series [3] (Day 2), 75%; in series [3] (Day 3), 80%; in series [3] (Day 4), 81%; in series [3] (Day 5), 77%; in series [3] (Day 6) it was 89%. Further, the “Zinc in whole blood, patients Within reference range” value in series [3] (Day 7) turned out to be 83%; in series [3] (Day 8) it was 88%; in series [3] (Day 9), 91%; in series [3] (Day 10), 95%; in series [3] (Day 11), 89%; in series [3] (Day 12), 87%. In addition, the “Zinc in whole blood, patients Within reference range” value in series [3] (Day 13) is given as 86%; in series [3] (Day 14) it was 100%; in series [3] (Day 15), 92%; in series [3] (Day 16), 91%; in series [3] (Day 17), 90%; in series [3] (Day 18), 80%. Also, in series [3] (setting [7]), the “Zinc in whole blood, patients Within reference range” value is reported as 88%. Further, in series [3] (patients with normal whole blood zinc receiving zinc, even high administration), the “Zinc level in the serum” value is recorded as “scarcely influenced”.
Take `O=S(=O)([O-])[O-].[Zn+2]` [ZnSO4]: the “Dose considered deadly for adults” value in the series on humans [1] (adults) is reported as 5 g. In the series with humans [1] (in vivo), the “Dose resulting in vomiting” value is 1 to 2 g. In addition, the “Outcome of inadvertent intravenous infusion” value in the series with humans [1] (total 7.4 g zinc within 60 hours) was “death”.
For `O=[74Se]([O-])[O-].[Na+].[Na+]` [[^74Se] sodium selenite], in series [4] (intravenous 82 μg of selenium, first 24 hours), the Dose excreted is 18%. Further, the “Absorbed dose excreted through the urine” value in series [4] (peroral administration, first 24 hours) is 12%.
In the case of `O=[75Se]([O-])[O-].[Na+].[Na+]` [[^75Se] sodium selenite], in series [4] (intravenous, first 24 hours), the Dose excreted is 12%. In addition, in series [4] (intravenous), the “Additional portion of dose eliminated in second phase” value is on record as 40%, the “Biological half-life of second phase” value is 20 days and the “Half-life of the third phase” value was 115 days. Besides, the “Absorbed dose excreted through the urine” value in series [4] (oral 10 μg, first two weeks) is reported as 14-20%. For the same compound, in series [4] (oral 10 μg), the “Half-life of total body retention, 1st phase” value was 0.7 to 1.2 days; the “Half-life of total body retention, 2nd phase” value was 7 to 11 days; the “Half-life of total body retention, 3rd phase” value was 96 to 144 days.
Take `[Zn]` [elementary zinc]: the Symptoms after ingestion result in the series with humans [1] (12 g/d for 2 days, child) is “recklessness, lethargy and dysgraphia”.
In the case of `O=[Se](O)O` [selenous acid], the “Outcome of acute selenium poisoning” value with humans [5] was “died”.
